Tests used:
[1] = test system: TM40DNeo, TM40DMp and TM40DT cells; assay: MTT in vitro cell proliferation assay with NAC treatment; format: cell-based, mouse
Procedure: MTT in vitro cell proliferation assay—Cells were seeded at 10^3 cells/well in 96—well plate and allowed to grow at 37° C. with 5% CO2. At each time point MTT (3-(4, 5-dimethylthiazolyl-2)-2, 5 diphenyltetrazolium bromide) reagent (5 mg/ml) was added in a volume of 10 μl per well and incubated at 37° C. with 5% CO2 for 3 hrs. The media was aspirated and 100 μl of DMSO was added and mixed until a uniform purple color was formed. The cell samples were measured using a plate reader at 570 nm. Assays were performed in triplicates.

[2] = test system: pERK1/2 in TM40DNeo, TM40DMp and TM40DT cells; assay: ERK1/2 phosphorylation (Western blot) with NAC treatment; format: cell-based, mouse
Procedure: ERK1/2 phosphorylation—Protein lysates (30 μg) were separated on 12% SDS-PAGE and phospho-plus kit was used to determine the ERK1/2 phosphorylation (Cat No. 9100, Cell Signaling Technology).

Q: For CC(=O)N[C@@H](CS)C(=O)O [NAC, N-acetyl cysteine], which proliferation rate ([1]; TM40DMp cells) is on record?
A: no significant change

Q: What about the proliferation rate ([1]; TM40DNeo cells) of the same compound?
A: significant drop

Q: What about the proliferation rate ([1]; TM40DT cells) of the same compound?
A: significant drop

Q: What about the “levels of activated pERK1/2” value ([2]; TM40DMp cells) of the same compound?
A: no change

Q: What about the “levels of activated pERK1/2” value ([2]; TM40DNeo cells) of the same compound?
A: significantly reduced

Q: What about the “levels of activated pERK1/2” value ([2]; TM40DT cells) of the same compound?
A: significantly reduced
